Entries after “also recorded” stand apart in the source; their conditions may differ.
How the values were obtained:
[1] = tested on: people with impaired glucose tolerance (IGT) or impaired fasting glucose (IFG), mild type 2 diabetes; assay: Study HOE901/1021: fasting and 8-point blood glucose profiles, bedtime dose titration; assay type: in vivo, human
Text: Study HOE901/1021 was a randomized, single-blind (pharmacist-unblinded), inpatient, dose-titration study designed to examine the safety and efficacy of HOE901 given once a day subcutaneously at bedtime in a novel population: people with impaired glucose tolerance (IGT) or impaired fasting glucose (IFG). It was conceived as a pilot study for a large international trial of HOE901 in a dysglycemic population of IGT, IFG, and early type 2 diabetes in order to investigate dosing in the prediabetic (IFG/IGT) population for the first time. Of special interest was the incidence of hypoglycemia during the study.
The study was conducted at three centers in the US. After screening tests, including fasting plasma glucose (FPG) and post prandial plasma glucose (PPG; two hours following a 75 g oral glucose load) for classification as IGT, IFG, diabetic, or normal glucose tolerance (NGT), and after satisfying other inclusion criteria including the ability to perform moderate exercise on a stationary bicycle, subjects were admitted to an inpatient study center. They were confined there for the next 15 days, during which time they were randomly assigned to receive either HOE901 once per day subcutaneously in the evening, or matching placebo (saline) injections in a 3:1 randomization (HOE901:placebo). Baseline assessments included a 5-point (before each meal, bedtime, and 3 AM) and 8-point (5-point plus readings 2 hours after each meal) blood glucose profile on separate days, and 15 minutes of exercise on a stationary bicycle at a level of exertion of “somewhat hard” on the Borg scale with blood glucose values monitored during and for 3 hours following the exercise. Each subject received a 25 kCal/kg diet while confined in the study center. Capillary whole blood glucose values were recorded on HemoCue devices. Episodes of hypoglycemia (blood glucose 50 mg/dL [2.8 mM] or symptoms with blood glucose 65 mg/dL [3.6 mM]) were recorded.
Once randomized, subjects' bedtime doses of study drug were titrated to achieve a fasting blood glucose (FBG) of 80-95 mg/dL [4.4 mM-5.3 mM]. Dose increases were based on FBG values and were performed every 2 days. Subjects remained at the site until the end of the confinement period, regardless of when target FBG levels were achieved. Five-point blood glucose profiles were performed every other day, with 8-point blood glucose profiles performed on alternate days. At endpoint all baseline procedures, including an 8-point blood glucose profile, and an exercise assessment, were repeated.

[2] = tested on: individuals with IGT, IFG, or mild untreated type 2 diabetes; assay: Study HOE901/1021: blood glucose response to 15-minute stationary bicycle exercise; design: species or system human; conditions: in vivo
Experimental: The study was conducted at three centers in the US. After screening tests, including fasting plasma glucose (FPG) and post prandial plasma glucose (PPG; two hours following a 75 g oral glucose load) for classification as IGT, IFG, diabetic, or normal glucose tolerance (NGT), and after satisfying other inclusion criteria including the ability to perform moderate exercise on a stationary bicycle, subjects were admitted to an inpatient study center. They were confined there for the next 15 days, during which time they were randomly assigned to receive either HOE901 once per day subcutaneously in the evening, or matching placebo (saline) injections in a 3:1 randomization (HOE901:placebo). Baseline assessments included a 5-point (before each meal, bedtime, and 3 AM) and 8-point (5-point plus readings 2 hours after each meal) blood glucose profile on separate days, and 15 minutes of exercise on a stationary bicycle at a level of exertion of “somewhat hard” on the Borg scale with blood glucose values monitored during and for 3 hours following the exercise. Each subject received a 25 kCal/kg diet while confined in the study center. Capillary whole blood glucose values were recorded on HemoCue devices. Episodes of hypoglycemia (blood glucose 50 mg/dL [2.8 mM] or symptoms with blood glucose 65 mg/dL [3.6 mM]) were recorded. […]

[3] = tested on: type 2 diabetic patients already treated with other oral antidiabetic drugs; assay: Study 4014: lipid data, LANTUS versus rosiglitazone; assay type: in vivo, human; design: Triglycerides % reduction from baseline / Triglycerides % reduction from baseline, LANTUS-AVANDIA / Non-HDL Cholesterol Total % reduction from baseline: concentration or dose not given beside the values; Triglycerides Baseline / Triglycerides Endpoint: unit not given beside the values; conditions: for Triglycerides % reduction from baseline, LANTUS-AVANDIA / Triglycerides change at endpoint, LANTUS-AVANDIA: LANTUS minus AVANDIA
[4] = Multiple-dose pharmacokinetic study (Study 1020); assay type: in vivo; conditions: 2 days of treatment
Text: (§1) Treatment with Lantus® LANTUS (insulin glargine) insulin offers the possibility of a smooth, daylong, blood insulin profile without a definite peak that can be finely titrated to lower subjects' FPG in a durable manner, while minimizing the risk of hypoglycemia at other times of day.

[5] = tested on: US/Canada type 2 diabetic patients; assay: Treat-to-Target study: hypoglycemia, bedtime LANTUS vs. NPH insulin; assay type: in vivo, human; conditions: single bedtime dose
Experimental: The ideal basal insulin might be expected to be less worrisome from this standpoint because the circulating insulin produced would target blood glucose elevations throughout the day rather than mealtime fluctuations. […] The “Treat-to-Target” study ^38 in US/Canada type 2 diabetic patients investigated whether a single bedtime dose of Lantus® LANTUS (insulin glargine) vs. NPH insulin (a moderate- to long-acting insulin with a pronounced peak in plasma activity for 4 to 8 hours after injection)^39 would achieve target metabolic control without increasing nocturnal hypoglycemia.
Insulin has features that make it especially useful in the patient with pronounced diabetic dyslipidemia, as compared to the oral antidiabetic agents usually used as initial pharmacotherapy. […] NPH insulin despite having a prolonged duration of action, has a pronounced peak effect from 3-6 hours after injection, rendering it less suitable in the management of the patient with milder diabetes due to the risk for hypoglycemia.

[6] = Post-marketing surveillance safety database; design: species or system human
Text: as §1

[7] = in vivo; cited from earlier work

insulin glargine [LANTUS]
Mean FBG ([1]; Day 12 (endpoint)): 85.6 mg/dL
Mean FBG ([1]; Day −1 (baseline)): 98.1 mg/dL
reduction in mean daylong blood glucose ([1]; Day −1 to Day 12): 8.8 mg/dL
subjects who had reached an FPG of 100 mg/dL ([1]; by Day 12): All but 2
subjects who had reached the FBG target of 95 mg/dL or less ([1]; by Day 12): all but 4
hypoglycemic events during exercise [2]: no hypoglycemic events
HDL Baseline ([3]; TG baseline range 200-500): 38
HDL Endpoint ([3]; TG baseline range 200-500): 40
LDL Baseline ([3]; TG baseline range 200-500): 115
LDL Endpoint ([3]; TG baseline range 200-500): 111
Non-HDL Cholesterol Total Baseline ([3]; TG baseline range 200-500): 168
Non-HDL Cholesterol Total Endpoint ([3]; TG baseline range 200-500): 152
Triglycerides % reduction from baseline ([3]; TG baseline range 200-500): 18%
Triglycerides Baseline ([3]; TG baseline range 200-500): 285
Triglycerides Endpoint ([3]; TG baseline range 200-500): 234
Triglycerides % reduction from baseline, LANTUS-AVANDIA ([3]; TG baseline range 200-500): 18%
Triglycerides change at endpoint, LANTUS-AVANDIA ([3]; TG baseline range 200-500): 47.7
HDL Baseline ([3]; TG baseline range 300-500): 32
HDL Endpoint ([3]; TG baseline range 300-500): 34
Non-HDL Cholesterol Total % reduction from baseline ([3]; TG baseline range 300-500): 4%
Non-HDL Cholesterol Total Baseline ([3]; TG baseline range 300-500): 156
Non-HDL Cholesterol Total Endpoint ([3]; TG baseline range 300-500): 150
Triglycerides % reduction from baseline ([3]; TG baseline range 300-500): 27%
Triglycerides Baseline ([3]; TG baseline range 300-500): 380
Triglycerides Endpoint ([3]; TG baseline range 300-500): 277
Triglycerides % reduction from baseline, LANTUS-AVANDIA ([3]; TG baseline range 300-500): 18%
Triglycerides change at endpoint, LANTUS-AVANDIA ([3]; TG baseline range 300-500): 68.5
HDL Baseline ([3]; TG baseline range 500-1000): 28
HDL Endpoint ([3]; TG baseline range 500-1000): 29
Non-HDL Cholesterol Total Baseline ([3]; TG baseline range 500-1000): 178
Non-HDL Cholesterol Total Endpoint ([3]; TG baseline range 500-1000): 153
Triglycerides Baseline ([3]; TG baseline range 500-1000): 817
Triglycerides Endpoint ([3]; TG baseline range 500-1000): 494
doses to reach steady-state levels [4]: 2 doses
hypoglycemia vs. NPH [5]: significant reductions in nocturnal hypoglycemia; also recorded: significant advantages over NPH in hypoglycemia
incidence of hypoglycemia or unexpected adverse reactions compared to other marketed insulin preparations [6]: no increased incidence of hypoglycemia or unexpected adverse reactions
duration of action [7]: up to 24 hour

Reference: US8809270B2, “Method for reducing cardiovascular morbidity and mortality in prediaetic patients and patients with type 2 diabetes” (priority 2003, dated 2014)
